Data published in patent US12685733B2, “Indole molecules and use thereof in the inhibition of DNA polymerases” (BioVentures, LLC, priority 2019, dated 2026).
Read-outs that look alike come from different tables or passages of the source.

Legend:
hRev1 = molecular target: T1, hRev1 (Homo sapiens, UniProt Q9UBZ9); test: Gel-based primer extension assay; type: biochemical; details: 10 μM; 10 nM Rev1
T1 construct: hRevl (residues 330-833); made in house
T1 sequence (Q9UBZ9 330-833): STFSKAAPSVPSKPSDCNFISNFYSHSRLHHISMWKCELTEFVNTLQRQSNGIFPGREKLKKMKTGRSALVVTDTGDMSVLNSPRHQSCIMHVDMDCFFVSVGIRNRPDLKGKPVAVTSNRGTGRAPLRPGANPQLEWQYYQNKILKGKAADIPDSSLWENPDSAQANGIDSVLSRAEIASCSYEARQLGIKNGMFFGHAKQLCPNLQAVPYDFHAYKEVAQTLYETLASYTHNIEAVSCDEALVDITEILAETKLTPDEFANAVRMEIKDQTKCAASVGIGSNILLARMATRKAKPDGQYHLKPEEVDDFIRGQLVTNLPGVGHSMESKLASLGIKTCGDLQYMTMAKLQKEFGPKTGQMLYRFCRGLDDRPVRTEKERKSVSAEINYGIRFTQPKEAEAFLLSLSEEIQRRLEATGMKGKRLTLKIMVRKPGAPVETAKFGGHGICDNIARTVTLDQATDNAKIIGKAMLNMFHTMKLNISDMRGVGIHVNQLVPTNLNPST

hpol λ = molecular target: T2, hpol λ (Homo sapiens, UniProt Q9UGP5); test: Fluorescence-based polymerase assay, other pol families; type: biochemical; details: 10 μM; 10 nM hpol λ (X-family)
T2 construct: hpol λ, residues 1-325; gift of Dr. Miguel Garcia-Diaz (Stony Brook University)
T2 sequence (Q9UGP5 242-575 limits assumed): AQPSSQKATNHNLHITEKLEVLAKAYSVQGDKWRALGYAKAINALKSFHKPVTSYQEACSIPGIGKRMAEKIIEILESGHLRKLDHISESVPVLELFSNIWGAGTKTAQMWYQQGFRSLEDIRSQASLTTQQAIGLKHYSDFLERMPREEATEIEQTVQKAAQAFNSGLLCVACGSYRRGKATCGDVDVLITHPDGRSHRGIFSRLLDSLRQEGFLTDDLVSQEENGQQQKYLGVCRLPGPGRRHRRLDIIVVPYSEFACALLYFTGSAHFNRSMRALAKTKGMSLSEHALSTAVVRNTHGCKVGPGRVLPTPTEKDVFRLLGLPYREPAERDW

MCF7 cells = test: BrdU ssDNA / propidium iodide flow cytometry; type: cell-based; details: PNR-7-48 0.5 μM + Mirin 100 μM, 48 hours
Description: MCF7 cells were plated in 60 mm dishes at a confluency of 300,000 cells per dish and incubated overnight. Cells were treated the next day with BrdU (10 μM). The compounds were diluted in DMSO and added to the media at a final concentration of PNR-7-48 (0.5 μM) and Mirin (100 μM). The final concentration of DMSO was 0.1% (v/v). After 48 hours of treatment, media was removed and cells were washed in 1×PBS and trypsinized. Cells were then resuspended in media and centrifuged at 1500 rpm (calculate relative centrifugal force, RCF) for 5 minutes. The supernatant was removed, and again cells were washed and centrifuged. The supernatant was discarded and cells were resuspended in ice-cold 70% (v/v) ethanol prepared in 1×PBS while being vortexed. After overnight fixing at 4° C., cells were vortexed and centrifuged at 3000 rpm (RCF) for 10 minutes. Ethanol was removed leaving residual amounts for cell resuspension by vortexing. Fixed cells were stained with fluorescent anti-BrdU antibodies (FITC mouse anti-BrdU kit; 556028; BD) without prior acid treatment to detect only ssDNA. To confirm that the experimental cells had incorporated BrdU, aliquots of all nuclei were also denatured using HCL and then neutralized with sodium borate before staining with the anti-BrdU antibody. […] Samples were analyzed using the BD FACSCalibur Flow Cytometer in the UAMS Flow Cytometry Core. […]

[1] = test system: hpol κ-deficient HAP-1 cells; test: supF mutagenesis assay; details: 1 μM IAG-10, 24 h
Description: HAP-1 hpol κ-proficient and hpol κ-deficient cells were cultured in 10 cm dishes to ~80% confluency in Iscove's modified Dulbecco's medium (Invitrogen) containing 10% (v/v) FBS supplemented with Ix antibiotic antimycotic solution (Sigma). They were transfected with unmodified (control) and methylmethanesulfonate (MMS)-modified pSP189 plasmid harboring the supF gene either in the absence or presence of 1 μM IAG-10. For plasmid modification with MMS, the pSP189 plasmid was first incubated with 100 mM MMS in 10 mM HEPES buffer (pH 7.5) containing 50 mM KCl, 5 mM MgCl2, and 1 mM dithiothreitol at RT for 1 h. The MMS-modified plasmid was then purified by ethanol precipitation and used in subsequent transfections, similar to the unmodified plasmid. […] The recovered plasmids (75-100 ng) were then transformed into E. coli MBM7070 strain by electroporation, and the transformed bacterial cells were plated on LB-agar plates containing 100 μg/mL ampicillin, 1 mM isopropyl-I-thio-fi-Dgalactopyranoside (IPTG) and 100 μg/mL X-gaL The resulting blue (nonmutated) and white (mutated) colonies were counted. The mutation frequency was calculated as the ratio of mutant (white) colonies to total (blue+white) colonies. At least 10 000 colonies were counted for each condition, and the results reported represent the mean (±SD) of experiments performed in biological triplicate.

hpol κ [2] = molecular target: T3, hpol κ (Homo sapiens, UniProt Q9UBT6); test: Gel-based primer extension assay; type: biochemical; set-up: hpol κ (residues 19-526); made in house; details: 10 μM; 1 nM hpol κ
T3 sequence (Q9UBT6 19-526): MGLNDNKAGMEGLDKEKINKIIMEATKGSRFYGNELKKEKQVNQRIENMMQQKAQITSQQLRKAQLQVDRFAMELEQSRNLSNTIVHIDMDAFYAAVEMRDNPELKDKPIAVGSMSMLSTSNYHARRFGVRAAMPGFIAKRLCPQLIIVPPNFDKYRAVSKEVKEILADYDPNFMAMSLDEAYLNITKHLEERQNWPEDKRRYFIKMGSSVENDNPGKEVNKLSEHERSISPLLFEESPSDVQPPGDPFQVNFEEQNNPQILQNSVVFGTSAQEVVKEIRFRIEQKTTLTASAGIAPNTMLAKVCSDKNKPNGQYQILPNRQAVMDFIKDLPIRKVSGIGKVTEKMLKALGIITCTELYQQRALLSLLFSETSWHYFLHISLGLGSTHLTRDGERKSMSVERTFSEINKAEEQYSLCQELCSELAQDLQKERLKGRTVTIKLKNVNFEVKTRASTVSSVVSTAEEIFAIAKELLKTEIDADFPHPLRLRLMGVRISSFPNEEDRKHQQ

hpol κ [3] = molecular target: T3, hpol κ; test: Fluorescence-based (TAMRA/BHQ strand displacement) DNA polymerase activity assay

## Cl.[H]/N=C(\N)NN=Cc1cn(C(=O)c2cccc3ccccc23)c2ccc(Cl)cc12 [IAG-10, (E)-2-((1-(1-naphthoyl)-5-chloro-1H-indol-3-y1)methylene)hydrazine-1-carboximidamide hydrochloride]
hRev1
  polymerase activity relative to DMSO control: only hpol κ was inhibited
Hpol λ
  polymerase activity relative to DMSO control: only hpol κ activity was inhibited
MCF7 cells
  cell death (sub-G1 cells): increases
  ssDNA gap formation (BrdU+ cells): increases
[1]
  mutation frequency for control or MMS-damaged DNA: did not alter the mutation frequency
Hpol κ [2]
  polymerase activity relative to DMSO control: only hpol κ was inhibited
Hpol κ [3]; 10 μM, 25 nM hpol κ, comparison with A, B, X family pols
  polymerase activity relative to DMSO control: only hpol κ activity was inhibited
Hpol κ [3]; IAG compounds, 40 μM, rate relative to DMSO control, three independent experiments
  % Activity Mean (hpol κ activity): 0.0%
Hpol κ [3]; after altering the reaction conditions (lower enzyme and DNA)
  specificity for hpol κ over η: ~ 30 fold
Hpol κ [3]; before altering the reaction conditions
  specificity for hpol κ over η: ~ 2 fold
Hpol κ [3]; read-out: IC50 against hpol κ, structure-activity study, 1 nM hpol κ, 50 nM DNA
  IC50: 7.2 µM
Hpol κ [3]; read-out: IC50 for inhibition of hpol κ, 0.5 nM DNA, 0.1 nM hpol κ, 95% confidence interval in parentheses
  IC50: 0.72 µM
Hpol κ [3]; read-out: IC50 for inhibition of hpol κ, 1 nM DNA, 95% confidence interval in parentheses
  IC50: 1.1 µM
Hpol κ [3]; read-out: IC50 for inhibition of hpol κ, 2.5 nM DNA, 95% confidence interval in parentheses
  IC50: 1.4 µM
Hpol κ [3]; read-out: IC50 for inhibition of hpol κ, 10 nM DNA, 95% confidence interval in parentheses
  IC50: 8.9 µM
Hpol κ [3]; read-out: IC50 for inhibition of hpol κ, 25 nM DNA, 95% confidence interval in parentheses
  IC50: 8.9 µM
Hpol κ [3]; read-out: IC50 for inhibition of hpol κ, 50 nM DNA, 95% confidence interval in parentheses
  IC50: 7.2 µM
Hpol κ [3]; steady-state kinetics with varying inhibitor concentration
  turnover number (kcat), hpol κ-catalyzed dTTP insertion: sharp decrease
